In patent publication US20240415819A1, “MACROCYCLIC COMPOUNDS AS PROTEASOME SUBUNIT BETA TYPE-5 INHIBITORS” (Lead Discovery Center GmbH, priority 2021, published 2024):

How the values were obtained:
[1] = test system: HT-29 cells; assay: CellTiter-Glo luminescent cell viability assay with HT-29 cells (72h incubation); type: cell-based, human; conditions: Homo sapiens, HT-29, HT29 cells, read-out: CTG HT29
In short: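 400 cells per well in DMEM/10% FCS were dosed after 24 h and kept 72 h at 37 °C, 5% CO2. ATP-based luminescence (CellTiter-Glo) normalized to DMSO and 10 μM staurosporine controls; IC50 by dose-response fit.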

[2] = test system: A549 (human lung carcinoma cell line); assay: Glo assay of A549 cells (Table 3; ProteasomeGlo plating scheme); type: cell-based; conditions: Homo sapiens; A549 cells; read-out: PGLo A549
In short: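 Compound treatment lasts 105 minutes at 37° C. under 5% CO2. Suc-LLVY-Glo substrate premixed with detection reagent (60 min at room temperature) is then added directly to the cells, and luminescence after 10-15 min in the dark gives the IC50 in nM.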

IC50 [1] | IC50 [2] | SMILES
< 100 nM | < 100 nM | Cc1ccc2cc1CNC(=O)[C@H](CCc1ccccc1)NC(=O)[C@@H](NC(=O)[C@@H](N)Cc1ccccc1)CC(=O)N1CCCC(CCO2)C1 (stereo partly drawn) [Compound 179, (2R)-2-amino-N-((9S,12S)-5^4-methyl-8,11,14-trioxo-9-phenethyl-4-oxa-7,10-diaza-1(3,1)-piperidina-5(1,3)-benzenacyclotetradecaphane-12-yl)-3-phenylpropanamide-]
< 100 nM | 100 to 500 nM | Cc1ccc2cc1CNC(=O)[C@H](CCc1ccccc1)NC(=O)[C@@H](NC(=O)C(C)(CO)CO)CC(=O)N1CCCC(CCO2)C1 (stereo partly drawn) [Compound 286, 3-hydroxy-2-(hydroxymethyl)-2-methyl-N-((9S,12S)-5^4-methyl-8,11,14-trioxo-9-phenethyl-4-oxa-7,10-diaza-1(3,1)-piperidina-5(1,3)-benzenacyclotetradecaphane-12-yl)propanamide]
< 100 nM | < 100 nM | CC(=O)N[C@H]1CC(=O)N2CCCC(CCOc3ccc(C)c(c3)CNC(=O)C(CCc3cnccn3)NC1=O)C2 (stereo partly drawn) [Compound 564, N-((12S)-5^4-methyl-8,11,14-trioxo-9-(2-(pyrazin-2-yl)ethyl)-4-oxa-7,10-diaza-1(3,1)-piperidina-5(1,3)-benzenacyclotetradecaphane-12-yl)acetamide]
< 100 nM | < 100 nM | CNCC(=O)N[C@H]1CC(=O)N2CCCC(CCOc3ccc(C)c(c3)CNC(=O)[C@H](CCc3ccccc3)NC1=O)C2 (stereo partly drawn) [Compound 129, N-((9S,12S)-5^4-methyl-8,11,14-trioxo-9-phenethyl-4-oxa-7,10-diaza-1(3,1)-piperidina-5(1,3)-benzenacyclotetradecaphane-12-yl)-2-(methylamino)acetamide]
100 to 500 nM | > 5000 nM | CC(=O)N[C@H]1CCC(=O)N(C)CCCCOc2ccc(C)c(c2)CNC(=O)[C@H](CCc2ccccc2)NC1=O [Compound 282, N-((11S,14S)-1^4,7-dimethyl-8,12,15-trioxo-1^4-phenethyl-2-oxa-7,13,16-triaza-1(1,3)-benzenacycloheptadecaphane-11-yl)acetamide]
< 100 nM | 100 to 500 nM | Cc1ccc2cc1CNC(=O)[C@H](CCc1ccccc1)NC(=O)[C@@H](N1C(=O)CCC1=O)CC(=O)N1CCCC(CCO2)C1 (stereo partly drawn) [Compound 43, (9S,12S)-12-(2,5-dioxopyrrolidin-1-yl)-5^4-methyl-9-phenethyl-4-oxa-7,10-diaza-1(3,1)-piperidina-5(1,3)-benzenacyclotetradecaphane-8,11,14-trione]
< 100 nM | < 100 nM | Cc1ccc2cc1CNC(=O)[C@H](CCc1ccccc1)NC(=O)[C@@H](NC(=O)C(C)(C)C#N)CC(=O)N1CCCC(CCO2)C1 (stereo partly drawn) [Compound 294, 2-cyano-2-methyl-N-((9S,12S)-54-methyl-8,11,14-trioxo-9-phenethyl-4-oxa-7,10-diaza-1(3,1)-piperidina-5(1,3)-benzenacyclotetradecaphane-12-yl)propanamide]
< 100 nM | < 100 nM | COc1cccc(CC(=O)N[C@H]2CC(=O)N3CCCC(CCOc4ccc(C)c(c4)CNC(=O)[C@H](CCc4ccccc4)NC2=O)C3)c1 (stereo partly drawn) [Compound 85, 2-(3-methoxyphenyl)-N-((9S,12S)-5^4-methyl-8,11,14-trioxo-9-phenethyl-4-oxa-7,10-diaza-1(3,1)-piperidina-5(1,3)-benzenacyclotetradecaphane-12-yl)acetamide]
< 100 nM | < 100 nM | Cc1ccc2cc1CNC(=O)[C@H](CCc1ccccc1)NC(=O)[C@@H](NC(=O)C1CCCc3ccccc31)CC(=O)N1CCCC(CCO2)C1 (stereo partly drawn) [Compound 82, N-((9S,12S)-5^4-methyl-8,11,14-trioxo-9-phenethyl-4-oxa-7,10-diaza-1(3,1)-piperidina-5(1,3)-benzenacyclotetradecaphane-12-yl)-1,2,3,4-tetrahydronaphthalene-1-carboxamide]
< 100 nM | < 100 nM | Cc1ccc2cc1CNC(=O)[C@H](CCc1ccccc1)NC(=O)[C@@H](NC(=O)C1(F)CCNCC1)CC(=O)N1CCCC(CCO2)C1 (stereo partly drawn) [Compound 134, 4-fluoro-N-((9S,12S)-5^4-methyl-8,11,14-trioxo-9-phenethyl-4-oxa-7,10-diaza-1(3,1)-piperidina-5(1,3)-benzenacyclotetradecaphane-12-yl)piperidine-4-carboxamide]
< 100 nM | < 100 nM | Cc1ccc2cc1CNC(=O)[C@H](CCc1ccccc1)NC(=O)[C@@H](NC(=O)c1cc3cc(C(F)(F)F)ccc3n1C)CC(=O)N1CCCC(CCO2)C1 (stereo partly drawn) [Compound 87, 1-methyl-N-((9S,12S)-5^4-methyl-8,11,14-trioxo-9-phenethyl-4-oxa-7,10-diaza-1(3,1)-piperidina-5(1,3)-benzenacyclotetradecaphane-12-yl)-5-(trifluoromethyl)-1H-indole-2-carboxamide]
< 100 nM | 100 to 500 nM | CC(=O)N[C@H]1CCC(=O)N2CCCC(CCOc3ccc(C)c(c3)CNC(=O)[C@H](CCc3ccccc3)NC1=O)C2 (stereo partly drawn) [Compound 215, N-((9S,12S)-5^4-methyl-8,11,15-trioxo-9-phenethyl-4-oxa-7,10-diaza-1(3,1)-piperidina-5(1,3)-benzenacyclopentadecaphane-12-yl)acetamide]
< 100 nM | < 100 nM | COCCOCCOCCOCCOCCC(=O)N[C@H]1CC(=O)N2CCCC(CCOc3ccc(C)c(c3)CNC(=O)[C@H](CCc3ccccc3)NC1=O)C2 (stereo partly drawn) [Compound 219, N-((9S,12S)-5^4-methyl-8,11,14-trioxo-9-phenethyl-4-oxa-7,10-diaza-1(3,1)-piperidina-5(1,3)-benzenacyclotetradecaphane-12-yl)-2,5,8,11,14-pentaoxaheptadecan-17-amide]

More lines, now with the values behind:

SMILES | IC50 [1] | IC50 [2]
CC(=O)N[C@H]1CC(=O)N2CCCC(CCOc3ccc(C)c(c3)CNC(=O)C(c3cnn(CCCS(=O)(=O)O)c3)NC1=O)C2 (stereo partly drawn) [Compound 571, 3-(4-((12S)-12-acetamido-5^4-methyl-8,11,14-trioxo-4-oxa-7,10-diaza-1(3,1)-piperidina-5(1,3)-benzenacyclotetradecaphane-9-yl)-1H-pyrazol-1-yl)propane-1-sulfonic acid] | 500 to 1000 nM | < 100 nM
Cc1ccc2cc1CNC(=O)[C@H](CCc1ccccc1)NC(=O)[C@@H](NC(=O)c1ccncc1)CC(=O)N1CCCC(CCO2)C1 (stereo partly drawn) [Compound 42, N-((9S,12S)-5^4-methyl-8,11,14-trioxo-9-phenethyl-4-oxa-7,10-diaza-1(3,1)-piperidina-5(1,3)-benzenacyclotetradecaphane-12-yl)isonicotinamide] | < 100 nM | < 100 nM
CC(=O)N[C@H]1CCCC(=O)N2CCCC(CCOc3ccc(C)c(c3)CNC(=O)[C@H](CCc3ccccc3)NC1=O)C2 (stereo partly drawn) [Compound 213, N-((9S,12S)-5^4-methyl-8,11,16-trioxo-9-phenethyl-4-oxa-7,10-diaza-1(3,1)-piperidina-5(1,3)-benzenacyclohexadecaphane-12-yl)acetamide] | < 100 nM | 100 to 500 nM
CO[C@@H](C(=O)N[C@H]1CC(=O)N2CCCC(CCOc3ccc(C)c(c3)CNC(=O)[C@H](CCc3ccccc3)NC1=O)C2)c1ccccc1 (stereo partly drawn) [Compound 86, (2R)-2-methoxy-N-((9S,12S)-5^4-methyl-8,11,14-trioxo-9-phenethyl-4-oxa-7,10-diaza-1(3,1)-piperidina-5(1,3)-benzenacyclotetradecaphane-12-yl)-2-phenylacetamide] | < 100 nM | < 100 nM
Cc1ccc2cc1CNC(=O)[C@H](CCc1ccccc1)NC(=O)[C@@H](NC(=O)Cc1cccc(N)c1)CC(=O)N1CCCC(CCO2)C1 (stereo partly drawn) [Compound 127, 2-(3-aminophenyl)-N-((9S,12S)-5^4-methyl-8,11,14-trioxo-9-phenethyl-4-oxa-7,10-diaza-1(3,1)-piperidina-5(1,3)-benzenacyclotetradecaphane-12-yl)acetamide] | < 100 nM | < 100 nM
CNCCOCC(=O)N[C@H]1CC(=O)N2CCCC(CCOc3ccc(C)c(c3)CNC(=O)[C@H](CCc3ccccc3)NC1=O)C2 (stereo partly drawn) [Compound 130, N-((9S,12S)-5^4-methyl-8,11,14-trioxo-9-phenethyl-4-oxa-7,10-diaza-1(3,1)-piperidina-5(1,3)-benzenacyclotetradecaphane-12-yl)-2-(2-(methylamino)ethoxy)acetamide] | 100 to 500 nM | 100 to 500 nM
Cc1ccc2cc1CNC(=O)[C@H](CCc1ccccc1)NC(=O)[C@@H](NC(=O)C1(C)COC1)CC(=O)N1CCCC(CCO2)C1 (stereo partly drawn) [Compound 287, 3-methyl-N-((9S,12S)-5^4-methyl-8,11,14-trioxo-9-phenethyl-4-oxa-7,10-diaza-1(3,1)-piperidina-5(1,3)-benzenacyclotetradecaphane-12-yl)oxetane-3-carboxamide] | < 100 nM | < 100 nM
Cc1ccc2cc1CNC(=O)[C@H](CCc1ccccc1)NC(=O)[C@@H](NC(=O)CCc1cccc(F)c1)CC(=O)N1CCCC(CCO2)C1 (stereo partly drawn) [Compound 25, 3-(3-fluorophenyl)-N-((9S,12S)-5^4-methyl-8,11,14-trioxo-9-phenethyl-4-oxa-7,10-diaza-1(3,1)-piperidina-5(1,3)-benzenacyclotetradecaphane-12-yl)propanamide] | < 100 nM | < 100 nM
CC(=O)N[C@H]1CCCC(=O)N2CCC2(C)COc2ccc(C)c(c2)CNC(=O)[C@H](CCc2ccccc2)NC1=O (stereo partly drawn) [Compound 281, N-((8S,11S)-1^2,4^4-dimethyl-7,10,15-trioxo-8-phenethyl-3-oxa-6,9-diaza-1(2,1)-azetidina-4(1,3)-benzenacyclopentadecaphane-11-yl)acetamide] | 100 to 500 nM | 1000 to 5000 nM
